The subject of the experiment is E. coli UBMS 88-1 (tetB). The experiment can be described thus: microbe, parasite or virus in culture. Particulars: Escherichia coli, 18 h. Type of experiment: cell-based. As for the experimental part:
The minimum inhibitory concentration (MIC), the lowest concentration of the antibiotic which inhibits growth of the test organism, is determined by the microtiter broth dilution method using 0.1 ml Muller-Hinton II broth (Baltimore Biological Laboratories) per well. A suitable oxygen scavenger (i.e., cysteine or dithiothreitol) is added to the assay medium for the testing of compounds according to Formula I because of the sensitivity of those compounds to oxidation. An inoculum level of 1-5×10^5 CFU/ml and a range of antibiotic concentrations (32 0.004 μg/ml) are used.

Structures can show the parent of a compound that is named as a salt.

Compound `CN(C)c1ccc(O)c2c1C[C@H]1C[C@H]3[C@H](N(C)C)C(O)=C(C(N)=O)C(=O)[C@@]3(O)C(O)=C1C2=O` [B, 7-(Dimethylamino)-6-demethyl-6-deoxytetracycline hydrochloride] gave an MIC of 8 µg/mL.

The values are drawn from patent publication US5281628A, “9-amino-7-(substituted)-6-demethyl-6-deoxytetracyclines” (American Cyanamid Company, priority 1991, dated 1994).
